According to patent US10961234B2, “Oxazole derivatives for use in the treatment of cancer” (LIFEARC, priority 2016, dated 2021):
pEC50, pIC50: −log10 of the molar value.

Legend:
[1] = target: T1, WT full length PAICS (Homo sapiens, UniProt P22234); test: Biochemical assay to measure PAICS activity (Transcreener ADP2 FI, SAICAR synthetase reaction); conditions: PAICS 2.5 nM, 30 mins pre-incubation, ADP detection by fluorescence intensity
T1 construct: 5 μl WT full length PAICS (final assay concentration, fac, 2.5 nM) in basic buffer
T1 sequence (P22234 1-425): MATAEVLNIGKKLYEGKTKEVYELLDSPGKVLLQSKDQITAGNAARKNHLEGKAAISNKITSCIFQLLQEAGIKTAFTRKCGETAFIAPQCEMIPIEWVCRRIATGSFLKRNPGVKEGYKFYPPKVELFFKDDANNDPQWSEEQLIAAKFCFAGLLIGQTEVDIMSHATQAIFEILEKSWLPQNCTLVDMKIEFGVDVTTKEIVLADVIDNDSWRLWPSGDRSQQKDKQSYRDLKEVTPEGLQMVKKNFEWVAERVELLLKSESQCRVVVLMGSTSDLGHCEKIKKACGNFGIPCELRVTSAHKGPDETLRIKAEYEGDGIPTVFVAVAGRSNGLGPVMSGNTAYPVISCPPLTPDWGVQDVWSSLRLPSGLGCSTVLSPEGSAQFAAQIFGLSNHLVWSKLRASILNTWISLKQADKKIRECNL
Description: The biochemical assay was used to measure PAICS SAICAR synthetase-mediated conversion of CAIR, aspartic acid and ATP to SAICAR, ADP and inorganic phosphate (PI), post-AIR/CAIR equilibration (see FIG. 3). This was achieved by detecting the ADP generated during the reaction, using Bellbrook Lab's Transcreener ADP^2 FI assay. An increase in the fluorescence intensity is directly proportional to the amount of PAICS activity.
The Transcreener ADP^2 FI assay is a homogeneous competitive displacement fluorescence intensity assay which uses direct immunodetection of ADP. Displacement of the tracer by ADP causes an increase in the fluorescence at excitation 590 nm and emission 617 nm (FIG. 3).
5 μl WT full length PAICS (final assay concentration, fac, 2.5 nM) in basic buffer, added to black, non-binding, 384-well plates (Corning #3575), columns 1 to 22.5 μl basic buffer was added to columns 23+24 (negative control). PAICS stock at 31.9 μM from the PI's lab (Steve Firestine). Basic buffer contained 50 mM Tris-HCl pH8 and 0.5 mM EDTA, fac.
1 μl compound in 100% DMSO added per well, or 1 μl 100% DMSO to positive controls (columns 1+2) and negative controls (columns 23+24). Final assay top concentration of compound either 1 mM or 30 μM, serially diluted with half-log dilutions across the plate in duplicate (one 10-point concentration response curve across wells 3 to 12, another across 13 to 22). Compounds pre-incubated with PAICS enzyme for 30 mins at RT.
2 μl CAIR added (fac 10 μM) in basic buffer plus 25 mM MgCl2 and 50 mM KHCO3 fac to all wells. CAIR stock 50 mM from Steve Firestine's lab. 1 hr RT incubation for AIR-CAIR equilibration. NB: ˜50% CAIR is decarboxylated during equilibration therefore 5 μM remains for the synthetase reaction.
2 μl ATP/aspartic acid added (fac 30 μM/180 μM) in reaction buffer to all wells. 30 mins RT incubation for appropriate level of ATP turnover. Reaction buffer contained basic buffer plus 10 mM DTT, 0.01% BSA and 0.01% Brij 35, fac.
10 μl ADP detection reagent added to all wells (as per instructions, Transcreener ADP^2 FI kit, BellBrook Labs #3013-10K). Incubation for 1 h at RT to allow antibody equilibration. Fluorescence intensity determined using a Tecan Safire2 (excitation at 590 nm, emission at 617 nm).

[2] = tested on: LM2 and MDA-MB-231 breast cancer cell lines; test: PAICS 2D cell proliferation assay; assay type: cell-based; conditions: Homo sapiens; 72 hours incubation; cell line (LM2 or MDA-MB-231) not given
Protocol: Frozen cryovial stocks of LM2 and MDA-MB-231 breast cancer cell lines were thawed and cultured in 4.5 g/L glucose DMEM (31966-047, Invitrogen) supplemented with 10% Fetal Bovine Serum (10500-064, Invitrogen) until confluent in a T175 flask. Cells were incubated at 37° C. with 5% CO2 in a humidified incubator.
Cells were collected from T175 flasks by washing with PBS (10010-056, Invitrogen) and dissociated using Accutase (A6964, Sigma Aldrich). This was followed by centrifuging (1200 rpm, 5 min) and resuspending the cells in 10 ml of media containing 1% penicillin/streptomycin (15140-122, Invitrogen). Cells were counted by trypan blue exclusion method using an automated cell counter (Cellometer) and diluted to a concentration of 40,000/ml. 1000 cells were then seeded into 384-well white-walled plates (Corning, 3707) in a volume of 25 μl. Plates were incubated overnight at 37° C. with 5% CO2.
After 24 hours, PAICS compounds were added onto the assay plates using an HP D300 Digital Dispenser (Hewlett Packard). 10 mM stocks were used and dispensed as a 10 point concentration response curve (CRC) ½ log dilution series with a final top concentration of 100 μM. Controls were added onto each plate: positive controls included Staurosporine CRC (100 μM stock dispensed as a 10 point CRC ½ log dilution series with a final top concentration of 1 μM) and PAICS compound MRT00211919 (10 mM stock dispensed as a 10 point CRC ½ log dilution series with a final top concentration of 100 μM); a high control of Staurosporine (0.1 μM (LM2), 0.316 μM (MDA-MB-231) FAC) and a low control of media containing 1% DMSO. A final concentration of 1% DMSO was then added across the plates for normalisation. Following compound addition, assay plates were incubated for 72 hours at 37° C. with 5% CO2.
After 72 h incubation, dead and viable cells were measured in each assay plate. Cytotoxicity was assessed through fluorescent DNA staining using the CellTox™ Green Cytotoxicity Assay kit (G8743, Promega) following the manufacturer's multiplexing protocol. Impaired cell membrane integrity results in the access of dye to stain DNA allowing quantification of dead cells. Cell viability was determined following ATP quantification using the CellTiter-Glo® Luminescent Cell Viability Assay kit (G7572, Promega) following the manufacturer's protocol. ATP released from lysed cells allowed for the generation of a signal proportional to the number of cells present in the well. All endpoint reads were performed using the PheraSTAR Plus (BMG Labtech). Data is expressed as % viable cells and % dead cells against controls (mean±SEM of duplicate curves).

pIC50 [1]	pEC50 [2]	Structure (SMILES)
7.00 to 7.60	6.30 to 6.60	CN(C)CCOc1ncc(-c2ccc(Cl)c(NC(=O)c3coc(N)n3)c2)cn1 [Example 74, 2-Amino-N-(2-chloro-5-(2-(2-(dimethylamino)ethoxy)pyrimidin-5-yl)phenyl)oxazole-4-carboxamide]
> 8.00	6.60 to 7.00	CNC1CCCN(Cc2ncc(-c3ccc(Cl)c(NC(=O)c4coc(N)n4)c3)s2)C1 (stereo not shown) [Example 95, 2-Amino-N-[2-chloro-5-(2-{[3-(methylamino)piperidin-1-yl]methyl}-1,3-thiazol-5-yl)phenyl]-1,3-oxazole-4-carboxamide]
7.60 to 8.00	6.60 to 7.00	Nc1nc(C(=O)Nc2cc(-c3cnn(CCCNC4CC4)c3)ccc2Cl)co1 [Example 48, 2-Amino-N-(2-chloro-5-(1-(3-(cyclopropylamino)propyl)-1H-pyrazol-4-yl)phenyl)oxazole-4-carboxamide]
> 8.00	> 7.00	CNC1CCN(Cc2ncc(-c3ccc(Cl)c(NC(=O)c4coc(N)n4)c3)s2)CC1 [Example 91, 2-Amino-N-[2-chloro-5-(2-{[4-(methylamino)piperidin-1-yl]methyl}-1,3-thiazol-5-yl)phenyl]-1,3-oxazole-4-carboxamide]
–	6.60 to 7.00	CSc1ccc(-c2cnc(OCCCN(C)C)s2)cc1NC(=O)c1coc(N)n1 [Example 99, 2-Amino-N-[5-{2-[3-(dimethylamino)propoxy]-1,3-thiazol-5-yl}-2-(methylsulfanyl)phenyl]-1,3-oxazole-4-carboxamide]
–	> 7.00	CCN(CC)CCCOc1ncc(-c2ccc(Cl)c(NC(=O)c3coc(N)n3)c2)s1 [Example 98, 2-Amino-N-(2-chloro-5-{2-[3-(diethylamino)propoxy]-1,3-thiazol-5-yl}phenyl)-1,3-oxazole-4-carboxamide]
–	> 7.00	CN(C)CCCc1ncc(-c2ccc(Cl)c(NC(=O)c3coc(N)n3)c2)s1 [Example 85, 2-Amino-N-(2-chloro-5-{2-[3-(dimethylamino)propyl]-1,3-thiazol-5-yl}phenyl)-1,3-oxazole-4-carboxamide]
–	6.60 to 7.00	CN1CCN(c2ncc(-c3ccc(Cl)c(NC(=O)c4coc(N)n4)c3)s2)CC1 [Example 101, 2-Amino-N-{2-chloro-5-[2-(4-methylpiperazin-1-yl)-1,3-thiazol-5-yl]phenyl}-1,3-oxazole-4-carboxamide]

Second part, the compound before the results:

Structure (SMILES)	pIC50 [1]	pEC50 [2]
CC1CN(C(=O)Cn2cc(-c3ccc(Cl)c(NC(=O)c4coc(N)n4)c3)cn2)CCN1 (stereo not shown) [Example 60, 2-Amino-N-(2-chloro-5-{1-[2-(3-methylpiperazin-1-yl)-2-oxoethyl]-1H-pyrazol-4-yl}phenyl)-1,3-oxazole-4-carboxamide]	< 7.00	6.30 to 6.60
CNC1CCCN(Cc2csc(-c3ccc(Cl)c(NC(=O)c4coc(N)n4)c3)n2)C1 (stereo not shown) [Example 96, 2-Amino-N-[2-chloro-5-(4-{[3-(methylamino)piperidin-1-yl]methyl}-1,3-thiazol-2-yl)phenyl]-1,3-oxazole-4-carboxamide]	–	> 7.00
Cc1nn(C2CCNCC2)cc1-c1ccc(Cl)c(NC(=O)c2coc(N)n2)c1 [Example 55, 2-Amino-N-(2-chloro-5-(3-methyl-1-(piperidin-4-yl)-1H-pyrazol-4-yl)phenyl)oxazole-4-carboxamide]	7.60 to 8.00	6.60 to 7.00
Nc1nc(C(=O)Nc2cc(-c3ccc(CN4CC5CNCC5C4)nc3)ccc2Cl)co1 (stereo not shown) [Example 79, 2-Amino-N-{2-chloro-5-[6-(hexahydropyrrolo[3,4-c]pyrrol-2(1H)-ylmethyl)pyridin-3-yl]phenyl}-1,3-oxazole-4-carboxamide]	7.60 to 8.00	6.30 to 6.60
CN(C)CCCC(=O)N1CCC(n2cc(-c3ccc(Cl)c(NC(=O)c4coc(N)n4)c3)cn2)CC1 [Example 64, 2-Amino-N-[2-chloro-5-(1-{1-[4-(dimethylamino)butanoyl]piperidin-4-yl}-1H-pyrazol-4-yl)phenyl]-1,3-oxazole-4-carboxamide]	< 7.00	6.30 to 6.60
Nc1nc(C(=O)Nc2cc(-c3cnn(C4CCNC4)c3)ccc2Cl)co1 (stereo not shown) [Example 41, 2-Amino-N-{2-chloro-5-[1-(pyrrolidin-3-yl)-1H-pyrazol-4-yl]phenyl}-1,3-oxazole-4-carboxamide]	7.00 to 7.60	6.60 to 7.00
CN1CCC(n2cc(-c3ccc(Cl)c(NC(=O)c4coc(N)n4)c3)cn2)CC1 [Example 44, 2-Amino-N-{2-chloro-5-[1-(1-methylpiperidin-4-yl)-1H-pyrazol-4-yl]phenyl}-1,3-oxazole-4-carboxamide]	< 7.00	6.60 to 7.00
CN(C)CCC(=O)N1CCC(n2cc(-c3ccc(Cl)c(NC(=O)c4coc(N)n4)c3)cn2)CC1 [Example 63, 2-Amino-N-(2-chloro-5-{1-[1-(N,N-dimethyl-beta-alanyl)piperidin-4-yl]-1H-pyrazol-4-yl}phenyl)-1,3-oxazole-4-carboxamide]	< 7.00	6.30 to 6.60
Nc1nc(C(=O)Nc2cc(-c3cnc(OC4CCNCC4)nc3)ccc2Cl)co1 [Example 82, 2-Amino-N-{2-chloro-5-[2-(piperidin-4-yloxy)pyrimidin-5-yl]phenyl}-1,3-oxazole-4-carboxamide]	7.60 to 8.00	6.30 to 6.60
CN(C)C1CCN(Cc2csc(-c3ccc(Cl)c(NC(=O)c4coc(N)n4)c3)n2)CC1 [Example 97, 2-Amino-N-[2-chloro-5-(4-{[4-(dimethylamino)piperidin-1-yl]methyl}-1,3-thiazol-2-yl)phenyl]-1,3-oxazole-4-carboxamide]	–	6.60 to 7.00
CSc1ccc(-c2nc(CN3CCNCC3)cs2)cc1NC(=O)c1coc(N)n1 [Example 100, 2-Amino-N-{2-(methylsulfanyl)-5-[4-(piperazin-1-ylmethyl)-1,3-thiazol-2-yl]phenyl}-1,3-oxazole-4-carboxamide]	–	> 7.00
